From patent publication US7141592B2, “Substituted oxadiazolidinediones” (Wyeth, priority 2003, dated 2006)

Legend:
[1] = molecular target: T1, recombinant human plasminogen activator inhibitor-1 (PAI-1) (Homo sapiens, UniProt P05121); experiment: Primary screen for the PAI-1 inhibition (chromogenic tPA activity, Spectrozyme-tPA); format: biochemical; conditions: compound at 100 μM
T1 construct: purchased Molecular Innovations, Royal Oak, Mich
Experimental: Test compounds are dissolved in DMSO at a final concentration of 10 mM, then diluted 100× in physiologic buffer. The inhibitory assay is initiated by the addition of the substituted oxadiazolidinedione (1–100 μM final concentration, maximun DMSO concentration of 0.2%) in a pH 6.6 buffer containing 140 nM recombinant human plasminogen activator inhibitor-1 (PAI-1; Molecular Innovations, Royal Oak, Mich.). Following a 1 hour incubation at room temperature, 70 nM of recombinant human tissue plasminogen activator (tPA) is added, and the combination of the substituted oxadiazolidinedione, PAI-1 and tPA is incubated for an additional 30 minutes. Following the second incubation, Spectrozyme-tPA (American Diagnostica, Greenwich, Conn.), a chromogenic substrate for tPA, is added and absorbance read at 405 nm at 0 and 60 minutes. Relative PAI-1 inhibition is equal to the residual tPA activity in the presence of the test compound and PAI-1. Control treatments include the complete inhibition of tPA by PAI-1 at the molar ratio employed (2:1), and the absence of any effect of the substituted oxadiazolidinedione on tPA alone.

[2] = molecular target: human PAI-1 (Homo sapiens, UniProt P05121); experiment: Assay for determining IC50 of inhibition of PAI-1 (active PAI-1 bound to tPA-coated plate, 33B8 antibody detection); format: biochemical; conditions: values carry suffix (K), not defined in the patent
Sequence of human PAI-1 (P05121 24-402): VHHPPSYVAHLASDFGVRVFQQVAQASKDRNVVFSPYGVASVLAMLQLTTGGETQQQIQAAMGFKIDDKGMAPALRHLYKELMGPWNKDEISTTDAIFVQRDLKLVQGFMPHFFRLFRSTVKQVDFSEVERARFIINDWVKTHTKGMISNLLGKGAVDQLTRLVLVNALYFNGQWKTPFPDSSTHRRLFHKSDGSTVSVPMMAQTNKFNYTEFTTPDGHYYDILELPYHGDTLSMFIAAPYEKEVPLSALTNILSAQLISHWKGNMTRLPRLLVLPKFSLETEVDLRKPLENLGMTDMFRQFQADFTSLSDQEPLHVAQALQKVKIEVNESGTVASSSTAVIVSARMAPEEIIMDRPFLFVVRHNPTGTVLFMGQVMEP
Experimental: This assay is based upon the non-SDS dissociable interaction between tPA and active PAI-1. Assay plates are initially coated with human tPA (10 μg/ml). Substituted oxadiazolidinediones of the present invention are dissolved in DMSO at 10 mM, then diluted with physiologic buffer (pH 7.5) to a final concentration of 1–50 μM. Test compounds are incubated with human PAI-1 (50 ng/ml) for 15 minutes at room temperature. The tPA-coated plate is washed with a solution of 0.05% Tween 20 and 0.1% BSA, then the plate is blocked with a solution of 3% BSA. An aliquot of the substituted oxadiazolidinedione/PAI-1 solution is then added to the tPA-coated plate, incubated at room temperature for 1 hour, and washed. Active PAI-1 bound to the plate is assessed by adding an aliquot of a 1:1000 dilution of the 33B8 monoclonal antibody against human PAI-1, and incubating the plate at room temperature for 1 hour (Molecular Innovations, Royal Oak, Mich.). The plate is again washed, and a solution of goat anti-mouse IgG-alkaline phosphatase conjugate is added at a 1:50,000 dilution in goat serum. The plate is incubated 30 minutes at room temperature, washed, and a solution of alkaline phosphatase substrate is added. The plate is incubated 45 minutes at room temperature, and color development is determined at OD405nm. The quantitation of active PAI-1 bound to tPA at varying concentrations of the substituted oxadiazolidinedione is used to determine the IC50. Results are analyzed using a logarithmic best-fit equation. The assay sensitivity is 5 ng/ml of human PAI-1 as determined from a standard curve ranging from 0–100 ng/ml.

T1 sequence (P05121 24-402): as above

Row | inhibition at 100 µM [1] [%] | IC50 [2] [µM] | SMILES
1 | 96 | 13.8 | CC(C)(C)c1ccc(COc2ccc3c(c2)c(Cn2oc(=O)[nH]c2=O)cn3Cc2ccccc2)cc1 [Compound 1, 2-({1-benzyl-5-[(4-tert-butylbenzyl)oxy]-1H-indol-3-yl}methyl)-1,2,4-oxadiazolidine-3,5-dione]
2 | 92 | 26.5 | O=c1[nH]c(=O)n(Cc2cn(Cc3ccccc3)c3ccc(OCc4cccc(Cl)c4)cc23)o1 [Compound 9, 2-({1-benzyl-5-[(3-chlorobenzyl)oxy]-1H-indol-3-yl}methyl)-1,2,4-oxadiazolidine-3,5-dione]
3 | 92 | 9.36 | O=c1[nH]c(=O)n(Cc2cn(Cc3ccccc3)c3ccc(OCc4cccc(C(F)(F)F)c4)cc23)o1 [Compound 10, 2-[(1-benzyl-5-{[3-(trifluoromethyl)benzyl]oxy}-1H-indol-3-yl)methyl]-1,2,4-oxadiazolidine-3,5-dione]
4 | 80 |  | Cc1cccc(COc2cccc(Cn3oc(=O)[nH]c3=O)c2OCc2cccc(C)c2)c1 [Compound 82, 2-{2,3-bis[(3-methylbenzyl)oxy]benzyl}-1,2,4-oxadiazolidine-3,5-dione]
5 | 95 |  | O=c1[nH]c(=O)n(Cc2cccc(OCc3cccc(Cl)c3)c2OCc2cccc(Cl)c2)o1 [Compound 83, 2-{2,3-bis[(3-chlorobenzyl)oxy]benzyl}-1,2,4-oxadiazolidine-3,5-dione]
6 | 95 |  | O=c1[nH]c(=O)n(Cc2cccc(OCc3cccc(Br)c3)c2OCc2cccc(Br)c2)o1 [Compound 84, 2-{2,3-bis[(3-bromobenzyl)oxy]benzyl}-1,2,4-oxadiazolidine-3,5-dione]
7 | 93 |  | O=c1[nH]c(=O)n(Cc2cccc(OCc3ccccc3Br)c2OCc2ccccc2Br)o1 [Compound 85, 2-{2,3-bis[(2-bromobenzyl)oxy]benzyl}-1,2,4-oxadiazolidine-3,5-dione]
8 | 94 |  | O=c1[nH]c(=O)n(Cc2ccc(OCc3ccc(C(F)(F)F)cc3)c(OCc3ccc(C(F)(F)F)cc3)c2)o1 [Compound 86, 2-(3,4-bis{[4-(trifluoromethyl)benzyl]oxy}benzyl)-1,2,4-oxadiazolidine-3,5-dione]
9 | 92 |  | Cc1cccc(COc2ccc(Cn3oc(=O)[nH]c3=O)cc2OCc2cccc(C)c2)c1 [Compound 87, 2-{3,4-bis[(3-methylbenzyl)oxy]benzyl}-1,2,4-oxadiazolidine-3,5-dione]
10 | 91 |  | O=c1[nH]c(=O)n(Cc2ccc(OCc3cccc(Cl)c3)c(OCc3cccc(Cl)c3)c2)o1 [Compound 88, 2-{3,4-bis[(3-chlorobenzyl)oxy]benzyl}-1,2,4-oxadiazolidine-3,5-dione]
11 | 88 |  | O=c1[nH]c(=O)n(Cc2ccc(OCc3cccc(Br)c3)c(OCc3cccc(Br)c3)c2)o1 [Compound 89, 2-{3,4-bis[(3-bromobenzyl)oxy]benzyl}-1,2,4-oxadiazolidine-3,5-dione]
12 | 94 |  | O=c1[nH]c(=O)n(Cc2ccc(OCc3ccccc3Br)c(OCc3ccccc3Br)c2)o1 [Compound 90, 2-{3,4-bis[(2-bromobenzyl)oxy]benzyl}-1,2,4-oxadiazolidine-3,5-dione]
